IC50 data for two molecules are collected here from PMC7127754 (Bioorganic & Medicinal Chemistry, 2008).

For this assay, the target named is SARS-CoV 3CL protease (Severe acute respiratory syndrome coronavirus, UniProt P0C6X7). The assay can be described thus: biochemical. The note with it: IC50 (inhibition of SARS-CoV 3CL protease).

Regarding `CCCCCCCCC(=O)N[C@@H](CC(C)C)C(=O)NC(Cc1ccccc1)C(=O)C(F)(F)F` (mixture of isomers) [Compound 5g, 3-{N-[N-CH3(CH2)7(C?O)-L-Leu]}-4-phenyl-1,1,1-trifluorobutan-2-one], the IC50 is above 50 µM.
To `C[C@H](NC(=O)CC[C@H](NC(=O)OC(C)(C)C)C(=O)OC(C)(C)C)C(=O)NCC(=O)C(F)(F)F` [Compound 5d, 3-{N-[N-tert-Butoxycarbonyl-L-γGlu(OtBu)-L-Ala]}-1,1,1-trifluoropropan-2-one] belongs 40 µM.
